# Results: patent US20240299353A1, “COMPOSITIONS AND METHODS FOR TREATING […] 5-MEO-DMT” (Alvarius Pharmaceuticals Ltd., priority 2021, published 2024)
# What was measured:
# [1] = test system: primary hippocampal neurons; experiment: Antagonist pre-treatment studies of neuronal structural change, Sholl analysis; format: cell-based, rat; conditions: for AUC of the Sholl plot / normalised AUC of the Sholl plot: vehicle pre-treated; for neuronal structural complexity (normalised AUC): meta-analysis, combined vehicle pre-treated groups
# Procedure: Primary hippocampal cultures were grown on 18 mm glass coverslips at a density of 1×10^6 cells as described. On 3 DIV all cells underwent a full medium change. […] On 4 DIV, all cells underwent a second full medium change. Cells in the combination group were treated with 2 μM 5-MeO-DMT for a further 24 hours with all other groups beginning a 24-hour treatment. After treatment was completed the cells were fixed and processed as described below.
# Based on the findings with other psychedelic drugs that share structural and behavioral similarities to 5-MeO-DMT we selected ANA-12 (Sigma), an antagonist of TrkB, the BDNF receptor, and rapamycin (ThermoFischer) an antagonist of the mammalian target of rapamycin (mTOR). Due to the affinity and known behavioral change induced by 5-MeO-DMT at the 5-HT1AR and 5-HT2AR we assessed their contribution to structural changes mediated by 5-MeO-DMT. The receptors were antagonized with WAY-100635 maleate (Tocris) or Ketanserin (Axxora), respectively. For all antagonist studies the antagonist under investigation was added 15 mins prior to drug treatment. […] ANA-12, Ketanserin and rapamycin were dissolved in dimethyl sulfoxide (DMSO) with a final concentration of 0.01-0.04% for treatment. WAY100635 was dissolved in sterile dH2O.
# After termination of drug treatment coverslips were processed and imaged as outlined for immunocytochemistry. In all instances NeuN antibody staining was used to visualize projections from the cell body. Images were analyzed using the Simple Neurite Tracer and Sholl analysis plug-ins for ImageJ Fiji. For the Sholl analysis circle radii of 2 μm increments were used. All images were taken and analyzed by an experimenter blinded to treatment conditions.
# Statistical Analysis—Data are represented as mean±SEM. Statistical analyses were performed using GraphPad Prism (version 5). For analyses involving comparison of three or more groups, a one-way ANOVA with Bonferroni's post-hoc test was utilized where appropriate. No statistics were calculated for the individual points of the Sholl plots, instead, statistical analyses were performed on the aggregate data, the area under the curve (AUC) of the Sholl plot. Secondary measurements were the Nmax, the maximum number of intersections measured by the Sholl analysis, which indicated the number of projections emanating from a neuron and the average length of primary neurites originating from the cell soma.
# [2] = test system: rats; experiment: Open field test; format: in vivo; conditions: for duration of rearing behaviour, main effect: 5-MeO-DMT p=0.0047, cocaine p=0.0380; for duration of time spent in the centre of the arena: any treatment group; for number of rearings, main effect: cocaine p=0.0202, 5-MeO-DMT p=0.0020; for duration of time spent in the centre of the field: any of treatments
# Procedure: In this instance the animals were 9 weeks old at the initiation of drug exposures and we selected just the high (20 mg/kg) dose of 5-MeO-DMT from the molecular study. […] Due to the number of behavioral paradigms to be completed by each animal we divided the study into two cohorts staggered by two weeks with 8 animals coming from each cohort to make up the 16 animals for each treatment group. 23 hours after 5-MeO-DMT administration the animals were introduced to the open field arena where they were allowed to freely explore the area for 5 mins. Following the open field test (OFT) animals were returned to their home cage for 2 hours before beginning either the elevated plus maze (EPM) or pre-pulse inhibition (PPI) testing. 24 hours after completing the OFT animals were returned to the chamber for the first session in novel object (NO1) testing. The animals were returned to their home cage for 2 hours before beginning the EPM or PPI test. 24 hours after NO1 the animals returned to the open field chamber for the second session in novel object (N02) testing. After completing N02 animals were returned to their home cage for 2 hours before they underwent the forced swim test (FST) pre-test. 24 hours later the animals were returned to the FS cylinders for the FST. Upon completion of the FST all animals were euthanized. A timeline of this experimental cohort is described in FIG. 8A.
# The experiment was conducted as described for cohort 1 for the first 13 days of injections. There are a number of notable differences in experimental procedures between the two cohorts of animals to be highlighted. […] Finally, the dose of 5-MeO-DMT was reduced to 10 mg/kg. The order and timing of all the behavioral paradigms were kept constant between the cohorts. A timeline of this experimental cohort is described in FIG. 8B. Additionally, 5-MeO-DMT administrations were staggered so animals could be observed for the duration of acute drug effects and to ensure recovery prior to the next animal being injected. The typical symptoms of psychedelic drug administration outlined above were reproduced in all animals administered 5-MeO-DMT.
# The open field environment provides a fast and relatively easy test that determines a variety of behavioral information ranging from general ambulatory ability to data regarding the emotionality of the subject animal. The technique enables investigation of different pharmacological compounds for anxiolytic or anxiogenic effects (Seibenhener, M. L. & M. C. Wooten (2015) Use of the Open Field Maze to Measure Locomotor and Anxiety-like Behavior in Mice. Journal of Visualized Experiments: JoVE, 52434). Rodents show distinct aversions to large, brightly lit, open and unknown environments (Choleris, E., A. W. Thomas, M. Kavaliers & F. S. Prato (2001) A detailed ethological analysis of the mouse open field test: effects of diazepam, chlordiazepoxide and an extremely low frequency pulsed magnetic field. Neuroscience & Biobehavioral Reviews, 25, 235-260). These features are incorporated in the open field test and form the basis of its use in behavioural paradigm testing. There are various parameters that can be quantified from the open field, but the primary parameter of interest is thigmotaxis, the tendency of a subject to remain close to walls as determined by measuring time spent in inner zones versus outer zones of the maze (Simon, P., R. Dupuis & J. Costentin (1994) Thigmotaxis as an index of anxiety in mice. Influence of dopaminergic transmissions. Behavioural brain research, 61, 59-64). […] For the OFT, animals were placed in the open field arena and allowed to freely explore for 5 minutes. The session was recorded and analysed by EthoVision software which quantified the total distance covered. The number of entries into and total time spent in the centre of the arena were scored by two observers blind to experimental conditions (FIG. 9).
# [3] = i.p. administration, rodents; cited from earlier work
# [4] = ANA-12 study, 5-MeO-DMT or cocaine alone
# [5] = WAY100635 study, 5-MeO-DMT (20 μM) or cocaine (25 μM) alone
# [6] = rapamycin study, 5-MeO-DMT or cocaine alone
# [7] = cohort 1, cocaine+20 mg/kg 5-MeO-DMT
smiles,measurement,setting,value
"COC(=O)[C@H]1[C@@H](OC(=O)c2ccccc2)C[C@@H]2CC[C@H]1N2C.Cl [cocaine, cocaine hydrochloride, reference compound]",AUC of the Sholl plot,[1]; [4],increased the AUC relative to control
same,normalised AUC of the Sholl plot,[1]; [5],increased the normalised AUC
same,neuronal structural complexity (normalised AUC),[1]; agent alone,significantly increased neuronal structural complexity
same,normalised AUC of the Sholl plot,[1]; [6],increased the normalised AUC
same,"duration of rearing behaviour, main effect",[2]; cohort 1,affected
same,duration of time spent in the centre of the arena,[2]; cohort 1,not affected by any treatment group
same,"number of rearings, main effect",[2]; cohort 1,significantly affected
same,duration of time spent in the centre of the field,[2]; cohort 2,not changed by any of treatments
same,number of entries into the centre of the open field,"[2]; cohort 2, cocaine p=0.0448, no post hoc differences",significantly affected
"COc1ccc2[nH]cc(CCN(C)C)c2c1 [5-MeO-DMT, 5-methoxy-N,N-dimethyltryptamine]",AUC of the Sholl plot,[1]; [4],increased the AUC relative to control
same,AUC of the Sholl plot,"[1]; ANA-12 study, cocaine and 5-MeO-DMT combined",increased the AUC relative to control
same,average neurite length,"[1]; ANA-12 study, 5-MeO-DMT alone",significantly increased
same,average neurite length,"[1]; ANA-12 study, 5-MeO-DMT in combination with cocaine",significantly increased
same,normalised AUC of the Sholl plot,[1]; [5],increased the normalised AUC
same,normalised AUC of the Sholl plot,"[1]; WAY100635 study, cocaine followed by 5-MeO-DMT",no change between the combination group and control
same,average neurite length,"[1]; WAY100635 study, 5-Meo+vehicle",significantly increased
same,normalised AUC of the Sholl plot,"[1]; ketanserin study, cocaine followed by 5-MeO-DMT",reduced AUC relative to control
same,neuronal structural complexity (normalised AUC),[1]; agent alone,significantly increased neuronal structural complexity
same,neuronal structural complexity (normalised AUC),[1]; cocaine+5-MeO-DMT combination,significantly increased neuronal structural complexity
same,normalised AUC of the Sholl plot,[1]; [6],increased the normalised AUC
same,normalised AUC of the Sholl plot,"[1]; rapamycin study, cocaine followed by 5-MeO-DMT",no change between the combination group and control
same,number of entries into the centre of the open field arena,"[2]; cohort 1, 20 mg/kg 5-MeO-DMT, p=0.0139, no post hoc differences",significantly affected
same,"duration of rearing behaviour, main effect",[2]; cohort 1,affected
same,duration of time spent in the centre of the arena,[2]; cohort 1,not affected by any treatment group
same,"number of rearings, main effect",[2]; cohort 1,significantly affected
same,duration of rearing behaviour,[2]; [7],significant decrease in the combination group relative to control
same,number of rearings,[2]; [7],significantly decreased the number of rearings relative to the control and cocaine-treated animals
same,total distance travelled,"[2]; cohort 1, cocaine+20 mg/kg 5-MeO-DMT relative to cocaine+vehicle",reduction in the total distance travelled
same,total distance travelled,"[2]; cohort 1, saline+20 mg/kg 5-MeO-DMT relative to saline+vehicle",reduction in the total distance travelled
same,number of rearings,"[2]; cohort 2, 10 mg/kg 5-MeO-DMT, p=0.0031, no post hoc differences",significant effect
same,duration of rearings,"[2]; cohort 2, 10 mg/kg 5-MeO-DMT, p=0.0837",not the duration of rearings
same,duration of time spent in the centre of the field,[2]; cohort 2,not changed by any of treatments
same,total distance travelled,"[2]; cohort 2, saline+10 mg/kg 5-MeO-DMT relative to saline+vehicle",specific reduction in the total distance travelled
same,terminal half-life (t½),[3],12 to 19 min
same,time of maximal drug concentration,[3],5 to 7 min
